# According to patent publication US20220031697A1, “Dose and regimen for an hdm2-p53 interaction inhibitor in hematological tumors” (Novartis AG, priority 2017, published 2022):
# Several values for one entry are separate records, joined by “and”; a condition that tells them apart may be missing. Equal values may be shown once. Read-outs that look alike come from different tables or passages of the source.
# What was measured:
# [1] = tested on: patients with hematological tumors
# Description: Herein, data are disclosed from this multicenter, open-label, first-in-human Phase I study of HDM201 in patients with advanced TP53 wild-type (WT) leukemias.
# The clinical study design allowed parallel exploration of the safety, tolerability, and clinical activity (efficacy) of two broad dosing strategies for HDM201 during dose escalation: intermittent high dose regimens (Regimen 1A and 1B) and extended low dose regimens (Regimen 2A and 2C).
# This clinical study utilized a Bayesian logistic regression model (BLRM) to support dose escalation and estimate the MTD for HDM201. The BLRM enables incorporation of available prior information and updates the model parameters based upon the DLTs observed in the clinical study at varied doses in evaluable patients.
# [2] = tested on: human SJSA-1 (osteosarcoma) xenograft; test: TGI PK/PD modelling, xenograft rat; format: in vivo; conditions: human SJSA-1 xenograft rat
# Description: Line at 120 ng/mL=95% tumor regression from human SJSA-1 xenograft rat. […] Calculation of average dose level (mg/day):
# To further support the 45 mg for HDM201, compartmental PK modeling was used to estimate the individual average concentration during cycle 1 for patients with hematological tumors treated at 45 mg on regimen 2C (FIG. 2). For all patients with measured PK, the estimated average drug concentrations during cycle 1 were above the most conservative average tumor stasis concentration of about 41 ng/mL per cycle determined from PKPD modeling of preclinical data (human SJSA-1 xenograft rat model).
# [3] = tested on: human HSAX2655 (liposarcoma) PDX; test: TGI PK/PD modelling, PDX rat; format: in vivo
# [4] = 1A 250 mg N=10, cut-off 15 Jan. 2018
# [5] = 1B 120 mg N=23, cut-off 15 Jan. 2018
# [6] = 2C 45 mg N=25, cut-off 15 Jan. 2018
smiles,measurement,setting,value
"COc1ncc(-c2nc3c(n2C(C)C)[C@H](c2ccc(Cl)cc2)N(c2cc(Cl)cn(C)c2=O)C3=O)c(OC)n1 [HDM201, (S)-5-(5-Chloro-1-methyl-2-oxo-1,2-dihydro-pyridin-3-yl)-6-(4-chloro-phenyl)-2-(2,4-dimethoxy-pyrimidin-5-yl)-1-isopropyl-5,6-dihydro-1H-pyrrolo[3,4-d]imidazol-4-one]","Abdominal Discomfort, Grade 3/4",[1],0 n (%)
same,"Abdominal Pain Upper, Grade 3/4",[1],0 n (%)
same,"Abdominal Pain, Grade 3/4",[1],0 n (%)
same,"Amylase Increased, Grade 3/4",[1],0 n (%)
same,"Arthralgia, Grade 3/4",[1],0 n (%)
same,"Asthenia, Grade 3/4",[1],0 n (%)
same,"Atrial Fibrillation, Grade 3/4",[1],0 n (%)
same,"Atypical Pneumonia, Grade 3/4",[1],0 n (%)
same,"Balanitis Candida, Grade 3/4",[1],0 n (%)
same,"Blood Alkaline Phosphatase Increased, Grade 3/4",[1],0 n (%)
same,"Blood Bilirubin Increased, Grade 3/4",[1],0 n (%)
same,"Blood Phosphorus Increased, Grade 3/4",[1],0 n (%)
same,"Cardiac Failure, Grade 3/4",[1],0 n (%)
same,"Conjunctival Haemorrhage, Grade 3/4",[1],0 n (%)
same,"Constipation, Grade 3/4",[1],0 n (%)
same,"Cough, Grade 3/4",[1],0 n (%)
same,"Cystitis Viral, Grade 3/4",[1],0 n (%)
same,"Cytomegalovirus Infection, Grade 3/4",[1],0 n (%)
same,"Decreased Appetite, Grade 3/4",[1],0 n (%)
same,"Diarrhoea, Grade 3/4",[1],0 n (%)
same,"Dyspepsia, Grade 3/4",[1],0 n (%)
same,"Epistaxis, Grade 3/4",[1],0 n (%)
same,"Fatigue, Grade 3/4",[1],0 n (%)
same,"General Physical Health Deterioration, Grade 3/4",[1],0 n (%)
same,"Gingival Bleeding, Grade 3/4",[1],0 n (%)
same,"Graft Versus Host Disease, Grade 3/4",[1],0 n (%)
same,"Haemoglobin Decreased, Grade 3/4",[1],0 n (%)
same,"Headache, Grade 3/4",[1],0 n (%)
same,"Hyperbilirubinaemia, Grade 3/4",[1],0 n (%)
same,"Hyperglycaemia, Grade 3/4",[1],0 n (%)
same,"Hyperphosphataemia, Grade 3/4",[1],0 n (%)
same,"Hyperuricaemia, All Grades",[1],2 n (%) and 2 (33.3) n (%) and 1 (14.3) n (%)
same,"Hypoalbuminaemia, Grade 3/4",[1],0 n (%)
same,"Hypocalcaemia, Grade 3/4",[1],0 n (%)
same,"Hypokalaemia, Grade 3/4",[1],0 n (%)
same,"Hypomagnesaemia, Grade 3/4",[1],0 n (%)
same,"Hyponatraemia, Grade 3/4",[1],0 n (%)
same,"Hypotension, Grade 3/4",[1],0 n (%)
same,"Infective Glossitis, Grade 3/4",[1],0 n (%)
same,"Influenza Like Illness, Grade 3/4",[1],0 n (%)
same,"Iron Overload, Grade 3/4",[1],0 n (%)
same,"Lip Oedema, Grade 3/4",[1],0 n (%)
same,"Malaise, Grade 3/4",[1],0 n (%)
same,"Mouth Haemorrhage, Grade 3/4",[1],0 n (%)
same,"Nausea, Grade 3/4",[1],0 n (%)
same,"Oedema Peripheral, Grade 3/4",[1],0 n (%)
same,"Oedema, Grade 3/4",[1],0 n (%)
same,"Oral Disorder, Grade 3/4",[1],0 n (%)
same,"Pain In Extremity, Grade 3/4",[1],0 n (%)
same,"Pneumonia, Grade 3/4",[1],0 n (%)
same,"Pollakiuria, Grade 3/4",[1],0 n (%)
same,"Pyrexia, Grade 3/4",[1],0 n (%)
same,"Rash Erythematous, Grade 3/4",[1],0 n (%)
same,"Rash Papular, Grade 3/4",[1],0 n (%)
same,"Rash, Grade 3/4",[1],0 n (%)
same,"Rectal Haemorrhage, Grade 3/4",[1],0 n (%)
same,"Skin Exfoliation, Grade 3/4",[1],0 n (%)
same,"Vomiting, Grade 3/4",[1],0 n (%)
same,"Weight Decreased, Grade 3/4",[1],0 n (%)
same,"Amylase Increased, All Grades",[1]; [4],1 (10.0) n (%)
same,"Amylase Increased, Grade 3/4",[1]; [4],1 (10.0) n (%)
same,"Anemia, All Grades",[1]; [4],5 (50.0) n (%)
same,"Anemia, Grade 3/4",[1]; [4],3 (30.0) n (%)
same,"Aspiration, All Grades",[1]; [4],1 (10.0) n (%)
same,"Aspiration, Grade 3/4",[1]; [4],1 (10.0) n (%)
same,"Blood Creatinine Increased, All Grades",[1]; [4],2 (20.0) n (%)
same,"Blood Creatinine Increased, Grade 3/4",[1]; [4],0 n (%)
same,"Blood Uric Acid Increased, All Grades",[1]; [4],2 (20.0) n (%)
same,"Blood Uric Acid Increased, Grade 3/4",[1]; [4],1 (10.0) n (%)
same,"Diarrhoea, All Grades",[1]; [4],3 (30.0) n (%)
same,"Diarrhoea, Grade 3/4",[1]; [4],0 n (%)
same,"Febrile Neutropenia, All Grades",[1]; [4],2 (20.0) n (%)
same,"Febrile Neutropenia, Grade 3/4",[1]; [4],2 (20.0) n (%)
same,"Hyperkalaemia, All Grades",[1]; [4],2 (20.0) n (%)
same,"Hyperkalaemia, Grade 3/4",[1]; [4],1 (10.0) n (%)
same,"Hyperuricaemia, All Grades",[1]; [4],1 (10.0) n (%)
same,"Hyperuricaemia, Grade 3/4",[1]; [4],1 (10.0) n (%)
same,"Hypocalcaemia, All Grades",[1]; [4],3 (30.0) n (%)
same,"Hypocalcaemia, Grade 3/4",[1]; [4],1 (10.0) n (%)
same,"Hypomagnesaemia, All Grades",[1]; [4],2 (20.0) n (%)
same,"Hypomagnesaemia, Grade 3/4",[1]; [4],0 n (%)
same,"Leukopenia, All Grades",[1]; [4],1 (10.0) n (%)
same,"Leukopenia, Grade 3/4",[1]; [4],1 (10.0) n (%)
same,"Megakaryocytes Abnormal, All Grades",[1]; [4],1 (10.0) n (%)
same,"Megakaryocytes Abnormal, Grade 3/4",[1]; [4],1 (10.0) n (%)
same,"Nausea, All Grades",[1]; [4],3 (30.0) n (%)
same,"Nausea, Grade 3/4",[1]; [4],0 n (%)
same,"Neutropenia, All Grades",[1]; [4],4 (40.0) n (%)
same,"Neutropenia, Grade 3/4",[1]; [4],3 (30.0) n (%)
same,"Thrombocytopenia, All Grades",[1]; [4],5 (50.0) n (%)
same,"Thrombocytopenia, Grade 3/4",[1]; [4],5 (50.0) n (%)
same,"Tumour Lysis Syndrome, All Grades",[1]; [4],5 (50.0) n (%)
same,"Tumour Lysis Syndrome, Grade 3/4",[1]; [4],5 (50.0) n (%)
same,Cycle 1 DLTs,"[1]; 1A (d1 Q3W) 250 mg, 3 evaluable patients",0
same,Cycle 1 DLTs,"[1]; 1A (d1 Q3W) 350 mg, 4 evaluable patients",0
same,Cycle 1 DLTs,"[1]; 1A (d1 Q3W) 400 mg, 9 evaluable patients",4
same,Cycle 1 DLTs,[1]; 1A total N = 16,4:
same,"Anemia, All Grades",[1]; [5],7 (30.4) n (%)
same,"Anemia, Grade 3/4",[1]; [5],2 (8.7) n (%)
same,"Asthenia, All Grades",[1]; [5],3 (13.0) n (%)
same,"Asthenia, Grade 3/4",[1]; [5],1 (4.3) n (%)
same,"Febrile Bone Marrow Aplasia, All Grades",[1]; [5],3 (13.0) n (%)
same,"Febrile Bone Marrow Aplasia, Grade 3/4",[1]; [5],2 (8.7) n (%)
same,"Leukopenia, All Grades",[1]; [5],3 (13.0) n (%)
same,"Leukopenia, Grade 3/4",[1]; [5],3 (13.0) n (%)
same,"Nausea, All Grades",[1]; [5],6 (26.1) n (%)
same,"Nausea, Grade 3/4",[1]; [5],0 n (%)
same,"Neutropenia, All Grades",[1]; [5],4 (17.4) n (%)
same,"Neutropenia, Grade 3/4",[1]; [5],4 (17.4) n (%)
same,"Thrombocytopenia, All Grades",[1]; [5],10 (43.5) n (%)
same,"Thrombocytopenia, Grade 3/4",[1]; [5],10 (43.5) n (%)
same,"Tumour Lysis Syndrome, All Grades",[1]; [5],4 (17.4) n (%)
same,"Tumour Lysis Syndrome, Grade 3/4",[1]; [5],3 (13.0) n (%)
same,"Vomiting, All Grades",[1]; [5],3 (13.0) n (%)
same,"Vomiting, Grade 3/4",[1]; [5],0 n (%)
same,Cycle 1 DLTs,"[1]; 1B (d1, d8 Q4W) 150 mg, 6 evaluable patients",1
same,Cycle 1 DLT events,[1]; 1B total N = 6,Acute Kidney
same,Cycle 1 DLTs,[1]; 1B total N = 6,1:
same,Cycle 1 DLTs,"[1]; 2A (2 weeks on/2 weeks off) 20 mg, 3 evaluable patients",0
same,Cycle 1 DLTs,"[1]; 2A (2 weeks on/2 weeks off) 30 mg, 3 evaluable patients",0
same,Cycle 1 DLTs,[1]; 2A total N = 6,0
same,"Alopecia, All Grades",[1]; [6],3 (12.0) n (%)
same,"Alopecia, Grade 3/4",[1]; [6],0 n (%)
same,"Anemia, All Grades",[1]; [6],13 (52.0) n (%)
same,"Anemia, Grade 3/4",[1]; [6],9 (36.0) n (%)
same,"Decreased Appetite, All Grades",[1]; [6],6 (24.0) n (%)
same,"Decreased Appetite, Grade 3/4",[1]; [6],0 n (%)
same,"Fatigue, All Grades",[1]; [6],5 (20.0) n (%)
same,"Fatigue, Grade 3/4",[1]; [6],2 (8.0) n (%)
same,"Febrile Neutropenia, All Grades",[1]; [6],8 (32.0) n (%)
same,"Febrile Neutropenia, Grade 3/4",[1]; [6],8 (32.0) n (%)
same,"Leukopenia, All Grades",[1]; [6],5 (20.0) n (%)
same,"Leukopenia, Grade 3/4",[1]; [6],5 (20.0) n (%)
same,"Nausea, All Grades",[1]; [6],12 (48.0) n (%)
same,"Nausea, Grade 3/4",[1]; [6],0 n (%)
same,"Neutropenia, All Grades",[1]; [6],11 (44.0) n (%)
same,"Neutropenia, Grade 3/4",[1]; [6],10 (40.0) n (%)
same,"Thrombocytopenia, All Grades",[1]; [6],13 (52.0) n (%)
same,"Thrombocytopenia, Grade 3/4",[1]; [6],12 (48.0) n (%)
same,"Tumour Lysis Syndrome, All Grades",[1]; [6],3 (12.0) n (%)
same,"Tumour Lysis Syndrome, Grade 3/4",[1]; [6],3 (12.0) n (%)
same,"Vomiting, All Grades",[1]; [6],6 (24.0) n (%)
same,"Vomiting, Grade 3/4",[1]; [6],0 n (%)
same,Cycle 1 DLTs,"[1]; 2C (1 week on/3 weeks off) 45 mg, 8 evaluable patients",1
same,Cycle 1 DLTs,[1]; 2C total N = 8,1
same,Patients with DLT,[1]; Regimen 2C 45 mg,12.5%
same,"Anemia, CTCAE grade 3/4 related to study drug","[1]; Regimen 2C 45 mg, 8 patients",37.5%
same,"Febrile neutropenia, CTCAE grade 3/4 related to study drug","[1]; Regimen 2C 45 mg, 8 patients",37.5%
same,"Neutropenia, CTCAE grade 3/4 related to study drug","[1]; Regimen 2C 45 mg, 8 patients",37.5%
same,Patients with at least one CTCAE grade 3/4 AE related to study drug,"[1]; Regimen 2C 45 mg, 8 patients",62.5%
same,"Thrombocytopenia, CTCAE grade 3/4 related to study drug","[1]; Regimen 2C 45 mg, 8 patients",62.5%
same,"Treatment-related anemia, all grades","[1]; Regimen 2C 45 mg, 8 patients",62.5%
same,"Treatment-related decreased appetite, all grades","[1]; Regimen 2C 45 mg, 8 patients",50.0%
same,"Treatment-related febrile neutropenia, all grades","[1]; Regimen 2C 45 mg, 8 patients",37.5%
same,"Treatment-related nausea, all grades","[1]; Regimen 2C 45 mg, 8 patients",37.5%
same,"Treatment-related neutropenia, all grades","[1]; Regimen 2C 45 mg, 8 patients",50.0%
same,"Treatment-related thrombocytopenia, all grades","[1]; Regimen 2C 45 mg, 8 patients",62.5%
same,Concentration for 95% tumor regression,[2],120 ng/mL
same,Average concentration for tumor stasis,[3],19 ng/mL
